Key:
Test in all cases: relative viability (nuclei count vs DMSO), 5 days (fraction); higher = more cells survive
[1] = compound: Cc1ccc(C(=O)Nc2ccc(CN3CCN(C)CC3)c(C(F)(F)F)c2)cc1C#Cc1cnc2cccnn12 [Ponatinib] + O=C(c1cc(Cc2n[nH]c(=O)c3ccccc23)ccc1F)N1CCN(C(=O)C2CC2)CC1 [Olaparib] (partner 8 µM)
Method in brief: (§1)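 Lung cancer cell lines in 1536-well plates got either a single drug or a fixed anchor-drug dose together with five library-drug doses (not always all listed) in √10 steps, by pin tool, on the day after seeding. Nuclei were counted after 5 days, and relative viability is the treated-to-vehicle ratio of nuclei counts. Values are medians of duplicate plates.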

[2] = compound: Cc1ccc(C(=O)Nc2ccc(CN3CCN(C)CC3)c(C(F)(F)F)c2)cc1C#Cc1cnc2cccnn12 [Ponatinib] + Nc1nc2[nH]cc(CCc3ccc(C(=O)N[C@@H](CCC(=O)O)C(=O)O)cc3)c2c(=O)[nH]1 [Pemetrexed] (partner 0.2 µM)
Method in brief: as §1

[3] = compound: Cc1ccc(Nc2nccc(N(C)c3ccc4c(C)n(C)nc4c3)n2)cc1S(N)(=O)=O [Pazopanib] + O=C(CCCCCCC(=O)Nc1ccccc1)NO [Vorinostat] (partner 1 µM)
Method in brief: as §1

[4] = compound: Cc1ccc(Nc2nccc(N(C)c3ccc4c(C)n(C)nc4c3)n2)cc1S(N)(=O)=O [Pazopanib] + CS(=O)(=O)N1CCN(Cc2cc3nc(-c4cccc5[nH]ncc45)nc(N4CCOCC4)c3s2)CC1 [Pictilisib] (partner 1 µM)
Method in brief: as §1

Row | Cell Line | relative viability ([1]; first compound 0.002 µM) | relative viability ([1]; first compound 0.006325 µM) | relative viability ([1]; first compound 0.06325 µM) | relative viability ([1]; first compound 0.2 µM) | relative viability ([2]; first compound 0.002 µM) | relative viability ([2]; first compound 0.006325 µM) | relative viability ([2]; first compound 0.06325 µM) | relative viability ([2]; first compound 0.2 µM) | relative viability ([3]; first compound 0.01 µM) | relative viability ([3]; first compound 0.03162 µM) | relative viability ([3]; first compound 0.1 µM) | relative viability ([3]; first compound 0.3162 µM) | relative viability ([3]; first compound 1 µM) | relative viability ([4]; first compound 0.01 µM) | relative viability ([4]; first compound 0.03162 µM) | relative viability ([4]; first compound 0.1 µM) | relative viability ([4]; first compound 0.3162 µM) | relative viability ([4]; first compound 1 µM)
1 | LXF-289 | 0.97 | 1.05 | 1.06 | 1.06 | 0.74 | 0.846 | 0.982 | 0.891 | 0.767 | 0.798 | 0.779 | 0.732 | 0.812 | 0.701 | 0.784 | 0.778 | 0.735 | 0.822
2 | NCI-H23 | 0.327 | 0.343 | 0.466 | 0.328 | 0.616 | 0.766 | 0.819 | 0.666 | 0.431 | 0.641 | 0.628 | 0.661 | 0.782 | 0.415 | 0.534 | 0.483 | 0.498 | 0.711
3 | NCI-H322M | 0.787 | 0.729 | 0.739 | 0.649 | 0.639 | 0.677 | 0.655 | 0.589 | 0.916 | 0.989 | 0.765 | 0.948 | 0.995 | 0.498 | 0.564 | 0.582 | 0.571 | 0.54
4 | NCI-H522 | 0.731 | 0.708 | 0.632 | 0.507 | 0.753 | 1.15 | 1.15 | 1.13 | 0.603 | 0.874 | 0.851 | 0.922 | 1.02 | – | – | – | – | –
5 | NCI-H727 | 0.609 | 0.742 | 0.587 | 0.627 | – | – | – | – | 1.17 | – | 1.06 | 1.15 | 1.08 | 0.356 | 0.244 | 0.497 | 0.393 | 0.483
6 | NCI-H1299 | 0.981 | 0.955 | 0.938 | 0.876 | – | – | – | – | – | – | – | – | – | 0.791 | 0.79 | 0.82 | 0.952 | 0.693
7 | NCI-H1563 | – | – | – | – | 0.748 | 0.798 | 0.745 | 0.641 | – | – | – | – | – | 0.664 | 0.637 | 0.697 | 0.667 | 0.627
8 | NCI-H1648 | 0.49 | 0.897 | 0.572 | 0.51 | 0.574 | 0.667 | 0.63 | 0.618 | – | – | 0.337 | 0.535 | 0.376 | – | – | – | – | –
9 | NCI-H1703 | 0.37 | 0.449 | 0.262 | 0.207 | – | – | – | – | – | – | – | – | – | 0.246 | 0.24 | 0.207 | 0.198 | 0.173
10 | NCI-H1792 | 0.44 | 0.587 | 0.489 | 0.313 | 0.698 | 0.849 | 1.14 | 0.746 | – | – | – | – | – | – | 0.271 | 0.276 | 0.282 | 0.309
11 | NCI-H2342 | 0.473 | 0.483 | 0.424 | 0.467 | 0.71 | 0.733 | 0.726 | 0.646 | 0.671 | 0.789 | 0.704 | 0.762 | 0.687 | – | – | – | – | –
12 | SW 900 | 0.958 | 0.867 | 0.95 | 0.725 | 0.458 | 0.495 | 0.457 | 0.464 | 0.465 | 0.33 | – | 0.545 | 0.53 | – | – | – | – | –
